Experimental data reported in patent US11718592B2, “Oxadiazole derivative” (Sumitomo Pharma Co., Ltd., priority 2020, dated 2023).
Read-outs that look alike come from different tables or passages of the source.

Columns and labels:
ddY male mice = experiment: Test with model produced by subcutaneous injection of pentetrazol (minimum convulsion model, scPTZ); assay type: in vivo; settings: 25 mg/kg oral administration
Description: In order to evaluate an antiepileptic drug, in general, a model produced by subcutaneous injection of pentetrazol (minimum convulsion model, scPTZ) is used, which has high clinical predictability. […] In this test, an animal model which expresses generalized absence seizure or myoclonic seizure was used. Test compounds were orally administered to Sic: ddY male mice (purchased from Japan SLC, Inc., 5 mice in each group, body weight 20-30 g). After an hour, pentetrazol (85 mg/kg) was subcutaneously administered. […] To control mice, 0.5% methylcellulose solution was administered, and the same test was done. The results are represented as the number of mice with no convulsion, per 5 mice. The present test was deemed to succeed when 4 mice among 5 mice in the control group developed convulsions.

GABA(A) receptors = experiment: Evaluation of the potentiating effect on GABA(A) receptors (electrophysiology, GABA(A) receptor expressing cells); assay type: cell-based; settings: for Inhibition rate to the increased electric current by adding flumazenil: 2 μM GABA and test compound with 10 μM flumazenil; for The potentiating effect on GABA(A) receptors EC20: concentration giving 20% increase of the current generated by 2 μM GABA
Description: Using GABA(A) receptor expressing cells prepared according to Guideline for Generation of Stable Cell Lines (website of Lonza Japan; Non-patent Literature 4), the present test is done for evaluating the potentiating effect of a drug on GABA(A) receptors based on the electric current raised by GABA. The GABA(A) receptor expressing cells were used in electrophysiological study, wherein the electric current was measured when 2 μM GABA solution and then a mixture of 2 μM GABA and the test compound were added to the cells. […] In addition, the electric current generated by a mixture of 2 μM GABA solution and the test compound with 10 μM flumazenil was measured, and the inhibition rate for the electric current by adding flumazenil was calculated compared to the electric current obtained in the absence of flumazenil.

Slc: ddy male mice = settings: mouse, in vivo, po, 1 h
Description: The present test is a test for evaluating whether the test compound may disturb coordinated movement or not. Rotarod is an apparatus equipped with a rotating columnar bar whose diameter is 4 cm, in which a mouse is made to walk on the rotating bar, and the coordinated movement is evaluated from the result of walking (can walk or cannot walk). Slc: ddy male mice (purchased from Japan SLC, Inc., body weight: 20-30 g) were trained 3 hours before the test starts so that they could walk on a rotarod apparatus rotating with a speed of 12 rotations per minute for 5 minutes without falling. Only the mice which can walk in the training are used in the test. The test compound was orally administered to a group consisting of 5 mice. […] To control mice, 0.5% methylcellulose solution was administered as test compound, and the same test was also done. The coordinated movement was evaluated with the average of the five mice's walking time (second).

BALB/c-Scn1a<+/−> mice = experiment: Anticonvulsant effect in mouse model of Dravet syndrome with febrile seizures; assay type: in vivo; settings: oral; for Difference of the threshold temperature of convulsion from that of the control group: at the dose for anticonvulsive effect, hyperthermia 50 minutes after dosing; for Dose for anticonvulsive effect: dose needed to raise the threshold body temperature for inducing febrile seizures significantly compared with the control group
From the text: This is a test for evaluating the anticonvulsant effect for febrile seizures of the test compounds in a mouse model of Dravet syndrome. In this test, BALB/c-Scn1a<+/−> mice were used (catalog number: RBRC06422; they are available from RIKEN BioResource Research Center via the National BioResource Project). The present mouse model having a mutation in a responsible gene for Dravet syndrome, Scn1A, presents with symptoms similar to febrile seizures caused by hyperthermia which is a symptom in a patient suffering from Dravet syndrome, and can be used as an animal model of spontaneous Dravet syndrome (for reference: the Japan Epilepsy Research Foundation, Annual Report 2015: 26: 69-76). To male mice model of Dravet syndrome (one group: 5-8 mice, body weight: 20-30 g) were orally administered the test compound. 50 minutes later, the mice were put in a chamber warmed with hot bath to evoke hyperthermia, and observed about the development of febrile seizures. Immediately after febrile seizure was developed, the rectal temperature was measured and used as the threshold body temperature for inducing febrile seizures.

Structure (SMILES)	animals exhibiting anticonvulsant action (in words) (ddY male mice)	Inhibition rate to the increased electric current by adding flumazenil (GABA(A) receptors) [%]	The potentiating effect on GABA(A) receptors EC20 (GABA(A) receptors) [µM]	average of the five mice's walking time (Slc: ddy male mice; 25 mg/kg) [s]	average of the five mice's walking time (Slc: ddy male mice; 50 mg/kg) [s]	average of the five mice's walking time (Slc: ddy male mice; 100 mg/kg) [s]	Difference of the threshold temperature of convulsion from that of the control group (BALB/c-Scn1a<+/−> mice) [°C]	Dose for anticonvulsive effect (BALB/c-Scn1a<+/−> mice) [mg/kg]
CN1C(=O)CC[C@H]1c1nc(-c2ccc(F)cc2)no1 (single isomer, unassigned) [Example 31]	more than half of the animals	<0	15	180	53.2	0	0.3	12.5
CN1C(=O)CCC1c1nc(-c2ccc(F)cc2)no1 (stereo not drawn) [Example 25, 5-[3-(4-Fluorophenyl)-1,2,4-oxadiazol-5-yl]-1-methylpyrrolidin-2-one]	more than half of the animals	12	16	180	144.8		0.3	12.5
